In US10253274B2, “Compounds and methods for inhibiting corrosion in hydrocarbon processing units” (General Electric Company, priority 2012, dated 2019):

assay: Neutralization efficiency by two-phase titration (pH at amine titrant concentration); assay type: physicochemical; settings: Table 1; 250 ppm amine titrant, 100° C., first set of tests
Description: Several amines were tested to determine their efficiencies in neutralizing acidic species and reducing deposits of hydrochloride and amine salts. The neutralization efficiency of these amines was tested using two-phase titration. For each amine tested, a titrand (100 ml) was placed in a flask. The titrand was designed to simulate an initial condensate and comprised 90 vol % naphtha and 10 vol % acidic water. The titrand was heated to 100° C. and maintained at that temperature while amine titrant was added to the flask.
A second set of tests were performed using some of the effective amines above. Additional tertiary amines were also tested and found to be effective. The additional tertiary amines were N-methyl piperidine, 2-dimethylamino 2-methyl 1-propanol (“DMAMP”) in an azeotropic solution comprising 80 wt % amine, N,N,N′,N′-tetramethyldiamino methane (“TMMD”), dimethyl tertiary butanolamine (“DMTBA”), and dimethyl methoxypropylamine (“DMMOPA”). The neutralization efficiency of these amines was tested using two-phase titration. For each amine tested, a titrand (100 ml) was placed in a flask. The titrand was designed to simulate an initial condensate and comprised 90 vol % naphtha and 10 vol % acidic water. The titrand was heated to 100° C. and maintained at that temperature while amine titrant was added to the flask. The tests were repeated 3 times in the second set of tests. The data in Table 2 are the averages of the 3 repeated tests.

| Compound | Neutral. Efficiency pH at 250 ppm |
| --- | --- |
| CCN(O)CC [Diethylhydroxylamine] | 2.4 |
| CN(C)CCN(C)C [N,N,N′,N′-tetramethylethylenediamine] | 4.7 |
| C#CCN(CC)CC [Diethylpropargylamine, diethylpropargylamine] | 2.2 |

same assay, conditions: Table 1; 500 ppm amine titrant, 100° C., first set of tests

| Compound | Neutral. Efficiency pH at 500 ppm |
| --- | --- |
| CCN(O)CC [Diethylhydroxylamine] | 4.1 |
| CN(C)CCN(C)C [N,N,N′,N′-tetramethylethylenediamine] | 6.7 |
| C#CCN(CC)CC [Diethylpropargylamine, diethylpropargylamine] | 3.6 |

same assay, conditions: Table 1; 1000 ppm amine titrant, 100° C., first set of tests

| Compound | Neutral. Efficiency pH at 1000 ppm |
| --- | --- |
| CCN(O)CC [Diethylhydroxylamine] | 5.0 |
| CN(C)CCN(C)C [N,N,N′,N′-tetramethylethylenediamine] | 8.3 |
| C#CCN(CC)CC [Diethylpropargylamine, diethylpropargylamine] | 5.9 |

same assay, conditions: Table 2; 250 ppm amine titrant, 100° C., second set, averages of 3 repeated tests

| Compound | Neutral. Efficiency pH at 250 ppm |
| --- | --- |
| CN(C)C(C)(C)CO [2-Dimethylamino 2-methyl 2-propanol (DMAMP) 80% azeotrope so] [2-dimethylamino 2-methyl 1-propanol] | 2.3 |
| CN1CCCCC1 [N-methyl piperidine] | 2.1 |
| CN(C)CN(C)C [N,N,N′,N′-tetramethyldiaminomethane] | 7.54 |
| CN(C)CCN(C)C [N,N,N′,N′-tetramethylethylenediamine] | 4.7 |

same assay, conditions: Table 2; 500 ppm amine titrant, 100° C., second set, averages of 3 repeated tests

| Compound | Neutral. Efficiency pH at 500 ppm |
| --- | --- |
| CN(C)C(C)(C)CO [2-Dimethylamino 2-methyl 2-propanol (DMAMP) 80% azeotrope so] [2-dimethylamino 2-methyl 1-propanol] | 6.3 |
| CN1CCCCC1 [N-methyl piperidine] | 7.5 |
| CN(C)CN(C)C [N,N,N′,N′-tetramethyldiaminomethane] | 8.87 |
| CN(C)CCN(C)C [N,N,N′,N′-tetramethylethylenediamine] | 6.7 |

same assay, conditions: Table 2; 1000 ppm amine titrant, 100° C., second set, averages of 3 repeated tests

| Compound | Neutral. Efficiency pH at 1000 ppm |
| --- | --- |
| CN(C)C(C)(C)CO [2-Dimethylamino 2-methyl 2-propanol (DMAMP) 80% azeotrope so] [2-dimethylamino 2-methyl 1-propanol] | 9.5 |
| CN1CCCCC1 [N-methyl piperidine] | 8.1 |
| CN(C)CN(C)C [N,N,N′,N′-tetramethyldiaminomethane] | 9.25 |
| CN(C)CCN(C)C [N,N,N′,N′-tetramethylethylenediamine] | 8.3 |

assay: Amine-HCl salt precipitation potential index (Salt PPI) relative to ammonia salt; assay type: physicochemical; settings: Table 1; average over 225 to 300° F., ammonia benchmark = 1.0
Text: Without limiting this specification to any particular theory of operation, the overall efficiency of a given amine may be predicted upon assessment of several factors. One such factor is the amine-HCl salt precipitation potential index (“Salt PPI”). The Salt PPI may also be known by those in the art as the salt volatility index. These indices are merely a comparison of the precipitation potential of the amine salt to the salt of a typical neutralizing compound used in hydrocarbon refining, ammonia.
Salt PPI may be calculated from the equation: […]
If one were to substitute the vapor pressure of ammonia for the vapor pressure of the amine in the equation, the Salt PPI would be 1.0. Effective amines are those that are as good, if not better than the typical additive, ammonia. Thus, effective amines would have a Salt PPI of equal to or less than 1.0. Other neutralizers commonly used in hydrocarbon refining are trimethylamine and N-methylmorpholine.

| Compound | Salt PPI |
| --- | --- |
| CCN(O)CC [Diethylhydroxylamine] | <0.1 |
| CN(C)CCN(C)C [N,N,N′,N′-tetramethylethylenediamine] | 0.27 |
| C#CCN(CC)CC [Diethylpropargylamine, diethylpropargylamine] | 0.12 |

same assay, conditions: Table 2; average over 225 to 300° F., ammonia benchmark = 1.0

| Compound | Salt PPI |
| --- | --- |
| CN(C)C(C)(C)CO [2-Dimethylamino 2-methyl 2-propanol (DMAMP) 80% azeotrope so] [2-dimethylamino 2-methyl 1-propanol] | 0.27 |
| CN1CCCCC1 [N-methyl piperidine] | 0.24 |
| CN(C)CN(C)C [N,N,N′,N′-tetramethyldiaminomethane] | 0.30 |
| COCCCN(C)C [Dimethyl methoxypropyl-amine (DMMOPA), dimethyl methoxypropylamine] | 0.20 |
| CN(C)C(C)(C)CO [Dimethyl tertiarybutanolamine (DMTBA), dimethyl tertiary butanolamine] | 0.32 |
| CN(C)CCN(C)C [N,N,N′,N′-tetramethylethylenediamine] | 0.48 |

same assay, conditions: ammonia salt is the benchmark

| Compound | Salt PPI |
| --- | --- |
| N [ammonia, reference compound] | 1.0 |

assay: pKa of the amine; assay type: physicochemical; settings: Table 1; read-out: pKa
Text: Another factor indicative of the overall efficiency of a given amine is the logarithm of the acid dissociation constant, pKa. Generally, amines with higher pKa values are more efficient neutralizers. Accordingly, in another embodiment, the treatment composition may comprise an amine with a pKa equal to or greater than about 5.0.

| Compound | pKa |
| --- | --- |
| CCN(O)CC [Diethylhydroxylamine] | 5.61 |
| CN(C)CCN(C)C [N,N,N′,N′-tetramethylethylenediamine] | 8.97 |
| C#CCN(CC)CC [Diethylpropargylamine, diethylpropargylamine] | 7.7 |

same assay, conditions: Table 2

| Compound | pKa |
| --- | --- |
| CN(C)C(C)(C)CO [Dimethyl tertiarybutanolamine (DMTBA), dimethyl tertiary butanolamine] | 8.9 |
| CN(C)CCN(C)C [N,N,N′,N′-tetramethylethylenediamine] | 8.97 |

same assay, conditions: Table 2; read-out: pKa

| Compound | pKa |
| --- | --- |
| CN1CCCCC1 [N-methyl piperidine] | 10.1 |
| CN(C)C(C)(C)CO [2-dimethylamino 2-methyl 1-propanol] | 10.2 |

assay: Boiling point; settings: Table 2

| Compound | Boiling Point |
| --- | --- |
| CN(C)C(C)(C)CO [2-Dimethylamino 2-methyl 2-propanol (DMAMP) 80% azeotrope so] [2-dimethylamino 2-methyl 1-propanol] | 98 °C |
| CN1CCCCC1 [N-methyl piperidine] | 107 °C |
| COCCCN(C)C [Dimethyl methoxypropyl-amine (DMMOPA), dimethyl methoxypropylamine] | 124 °C |
| CN(C)C(C)(C)CO [Dimethyl tertiarybutanolamine (DMTBA), dimethyl tertiary butanolamine] | 150 °C |
| CN(C)CCN(C)C [N,N,N′,N′-tetramethylethylenediamine] | 122 °C |

assay: Solubility Oil/Water; settings: Table 1

| Compound | Solubility Oil/Water |
| --- | --- |
| CCN(O)CC [Diethylhydroxylamine] | Water |
| CN(C)CCN(C)C [N,N,N′,N′-tetramethylethylenediamine] | Water |

same assay, conditions: Table 2

| Compound | Solubility Oil/Water |
| --- | --- |
| CN(C)C(C)(C)CO [2-Dimethylamino 2-methyl 2-propanol (DMAMP) 80% azeotrope so] [2-dimethylamino 2-methyl 1-propanol] | Water |
| CN1CCCCC1 [N-methyl piperidine] | Water |
| COCCCN(C)C [Dimethyl methoxypropyl-amine (DMMOPA), dimethyl methoxypropylamine] | Water |
| CN(C)C(C)(C)CO [Dimethyl tertiarybutanolamine (DMTBA), dimethyl tertiary butanolamine] | Water |
| CN(C)CCN(C)C [N,N,N′,N′-tetramethylethylenediamine] | Water |
